From the supplement of paper PMC10307832

Assays:
Assay in all cases: relative viability (nuclei count vs DMSO), 5 days (fraction); higher = more cells survive
[1] = compound: C=C(c1ccc(C(=O)O)cc1)c1cc2c(cc1C)C(C)(C)CCC2(C)C [Bexarotene] + Cc1nc(NC(=O)N2CCC[C@H]2C(N)=O)sc1-c1ccnc(C(C)(C)C(F)(F)F)c1 [Alpelisib] (partner 2 µM)
Outline: (§1)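 Lung cancer cell lines, seeded in 1536-well plates, were treated the following day by pin tool with a single drug or with five library-drug doses (not always all listed) in √10 steps on top of a fixed anchor-drug dose. Cells were fixed and nuclei stained in one step after 5 days, and nuclei were counted. Relative viability is the nuclei count for treated wells divided by that for vehicle wells, reported as medians of duplicate plates.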

[2] = compound: C=C(c1ccc(C(=O)O)cc1)c1cc2c(cc1C)C(C)(C)CCC2(C)C [Bexarotene] + C[C@]1(O)C[C@@H](c2nc(-c3ccc4ccc(-c5ccccc5)nc4c3)c3c(N)nccn32)C1 [Linsitinib] (partner 1 µM)
Outline: as §1

[3] = compound: C=C(c1ccc(C(=O)O)cc1)c1cc2c(cc1C)C(C)(C)CCC2(C)C [Bexarotene] + Nc1ncn([C@H]2C[C@H](O)[C@@H](CO)O2)c(=O)n1 [Decitabine] (partner 2 µM)
Outline: as §1

[4] = compound: C=C(c1ccc(C(=O)O)cc1)c1cc2c(cc1C)C(C)(C)CCC2(C)C [Bexarotene] + CS(=O)(=O)N1CCN(Cc2cc3nc(-c4cccc5[nH]ncc45)nc(N4CCOCC4)c3s2)CC1 [Pictilisib] (partner 1 µM)
Outline: as §1

Cell Line	relative viability ([1]; first compound 0.08 µM)	relative viability ([1]; first compound 0.253 µM)	relative viability ([1]; first compound 0.8 µM)	relative viability ([1]; first compound 2.53 µM)	relative viability ([1]; first compound 8 µM)	relative viability ([2]; first compound 0.08 µM)	relative viability ([2]; first compound 0.253 µM)	relative viability ([2]; first compound 0.8 µM)	relative viability ([2]; first compound 2.53 µM)	relative viability ([2]; first compound 8 µM)	relative viability ([3]; first compound 0.08 µM)	relative viability ([3]; first compound 0.253 µM)	relative viability ([3]; first compound 0.8 µM)	relative viability ([3]; first compound 2.53 µM)	relative viability ([3]; first compound 8 µM)	relative viability ([4]; first compound 0.08 µM)	relative viability ([4]; first compound 0.253 µM)	relative viability ([4]; first compound 0.8 µM)	relative viability ([4]; first compound 2.53 µM)	relative viability ([4]; first compound 8 µM)
NCI-H1792	0.534	0.697	0.532	0.585	0.413	0.437	0.586	0.259	0.422	0.342	0.548	0.527	0.493	0.531	0.425	0.244	0.204	0.213	0.252	0.205
NCI-H1355	0.957	0.894	0.765	0.916	0.876	1.02	0.945	0.801	0.923	0.764	0.379	0.332	0.416	0.388	0.346	0.604	0.622	0.358	0.561	0.486
SW 1573	0.706	0.454	0.51	0.454	0.422	0.777	0.608	0.681	0.754	0.536	0.505	0.43	0.482	0.452	0.363	0.554	0.459	0.447	0.42	0.436
A549	0.992	0.826	0.836	0.671	0.686	0.543	0.539	0.586	0.579	0.451	0.256	0.291	0.318	0.242	0.237	0.59	0.476	0.571	0.507	0.48
NCI-H2347	1.05	1.03	0.748	1.01	1.11	1.06	1.02	0.749	0.975	1.02	0.621	0.705	0.606	0.686	0.565	0.597	0.62	0.461	0.743	0.605
LCLC-97TM1	0.333	0.285	0.274	0.264	0.263	0.185	0.193	0.185	0.207	0.224	0.282	0.224	0.227	0.189	0.21	0.265	0.188	0.209	0.214	0.213
EMC-BAC-2	0.748	0.735	0.705	0.73	0.719	0.873	0.813	0.75	0.804	0.811	1.1	0.948	0.924	–	0.943	0.618	0.561	0.52	0.554	0.469
NCI-H1975	0.705	0.783	0.665	0.669	0.836	1.06	1.12	1.08	1.22	1.1	0.359	0.393	0.443	0.406	0.392	0.361	0.347	0.319	0.342	0.386
BEN	1.03	0.962	0.898	0.836	0.893	1.04	0.883	0.847	0.76	0.742	0.706	0.666	0.723	0.647	0.692	0.674	0.576	0.495	0.452	0.571
NCI-H23	0.812	0.782	0.551	0.829	0.656	0.737	0.673	0.533	0.638	0.654	0.351	0.322	0.346	0.298	0.329	0.623	0.489	0.44	0.516	0.52
NCI-H520	0.99	0.775	0.708	0.826	0.803	1.02	0.951	0.79	0.976	0.88	0.499	0.473	0.552	0.52	0.51	0.324	0.244	0.293	0.286	0.235
EPLC-272H	0.9	0.97	0.884	0.901	0.911	1.31	1.07	0.846	1.25	1.25	0.414	0.36	0.353	0.368	0.414	0.373	0.308	0.33	0.298	0.352
LCLC-103H	1.03	0.968	1.04	1.09	0.993	1.24	1.15	1	1.06	1.14	0.811	0.701	0.689	0.795	0.742	0.71	0.642	0.529	0.653	0.631
NCI-H2405	0.935	0.915	0.52	0.806	0.864	1.1	0.946	0.695	0.973	0.912	0.887	0.729	0.653	0.711	0.775	0.58	0.455	0.326	0.538	0.523
HCC-15	0.91	0.849	0.845	0.816	0.788	0.957	0.932	0.678	0.787	0.772	0.762	0.72	0.611	0.588	0.568	0.798	0.743	0.656	0.644	0.632
PC-3 [JPC-3]	1.06	1.08	0.815	0.984	0.932	0.98	1.03	0.829	0.882	0.827	0.874	0.865	0.88	0.745	0.781	0.868	0.749	0.519	0.656	0.666
